What was measured:
[1] = system: Cytoxan-induced alopecia in rat pups; assay: Cytoxan-induced alopecia in rat pups; format: in vivo
Protocol: Induction of alopecia by cytoxan (CTX). Lactating Sprague Dawley mother rats with rat pups were purchased from Harlan Sprague Dawley (Indianapolis, Ind.). The mother rats were given food and water ad libitum. The rats pups were tested in the model of chemotherapy-induced alopecia described by Hussein A. M. et al., Science: 249, 1564 (1990). Cytoxan (CTX), a chemotherapeutic widely used in the treatment of cancer, was used to induce alopecia in the rats. A common side effect of cytoxan treatment in patients is alopecia. Lyophilized vials of Cytoxan were obtained from Mead-Johnson. To produce CTX-induced alopecia, 11 day old rat pups, which are at the peak of coat growth, were injected i.p. with 30-35 μg of CTX/gm body weight. CTX was dissolved in water. By day 18 of life, the animals have shed virtually 100% of their coat leaving bare skin on their backs. Thus, topical application of protective drugs to the animal's back prior to the CTX insult provides a suitable test for prevention of chemotherapy-induced alopecia. A separate alopecia assay was also developed in which whole-body irradiation on day 11 of life was used as the insult. This assay is described in further detail in Example 12 which follows.
In the earliest studies with chemoprotective polyamines, the molecules were prepared in a topical delivery vehicle consisting of from 50-70% ethanol in water, depending on the solubility of the compound. The compounds in ethanol/water solution from 50-150 µl in volume were topically administered to the backs of the pups once per day before and after CTX challenge. Using a micropipette, the formulation was applied to an approximately 2 cm2 section of skin on the backs of the rat pups. Specifically, the pups were treated once daily for the 4-5 days before CTX challenge, once on the day of CTX challenge and once daily for 5 days afterwards. Control groups consisted of pups receiving only delivery vehicle. […]
In the earliest studies with chemoprotective polyamines, hair loss was evaluated using a modified alopecia-scoring index described by Chen G. et al., Int. […] In the later studies with aminothiols a simpler scoring scale was adopted in which coat density was scored on a 0-100 scale as “% of normal coat density.”
Method: To assess the ability of topical treatments to prevent Cytoxan-induced alopecia we used a published protocol (Hussein et al., Science. 249(4976):1564-6, 1990) in which 11 day old neonate rat pups (Sprague-Dawley) receive a total of 6 topical skin treatments of active agent(s) during the 5 hr before and 2 hr after a single ip dose of Cytoxan (32 ug/gm b.w.). […] The density of the rat coats in the topical treatment area was scored on day 18 of life for animals injected with Cytoxan.

[2] = system: A431 human epidermoid cells (xenograft in nude mice); assay: Effect of topical drug on killing of tumor xenograft by external beam γ irradiation; format: in vivo, mouse; settings: topical dose 5-times higher than standard regimen, adjacent to xenograft; 6.2 Gy
Protocol: Briefly, athymic nude mice (nu/nu, 6-7 weeks, Harlan Labs) were housed in cages containing autoclaved bedding and received autoclaved food and water. Cages were maintained in a sterile laminar flow hood. Mice received a single, sc injection of tumor cells (6.5×10^6, A431; 2.5×10^6, L1210) suspended in 200 ul of serum-free DMEM.
After three days, mice were treated with topical drug in vehicle or vehicle alone. PrC-210 was formulated in a 50:30:20 vehicle (ethanol:PG (propylene glycol):water, adjusted to pH 6.5 with NaOH), and mice received four topical applications over two hours (at −2 hr, −1 hr, −30 min and −10 min, irradiation was at 0 min). 18-20 gm nude mice received topical treatments of 13 ul, 11 ul, 11 ul and 11 ul (total=46 ul) applied to a roughly 1 cm×1.5 cm area on the right flank, which was adjacent to the tumor xenograft. For these tumor xenograft experiments, a 5-fold increase in drug concentration over the minimum effective concentration previously shown to prevent radiodermatitis was tested.
With the last topical drug application, at −10 min, the mice also received an ip injection of Nembutal (65 ug/gm b.w.). […]
Growth of the xenograft tumors was monitored by vernier caliper measurements every 1-2 days for the 18-21 days following irradiation. […]

[3] = system: supercoiled pUC19 plasmid; assay: Hydroxyl radical scavenging, plasmid DNA protection; format: biochemical; settings: 0-70 mM, pH 6.5; even the lowest concentration tested; UV 2.5 min
Protocol: Method: 0.3 μg pUC19 plasmid was added to a 16 μl incubation containing Tris-EDTA buffer, then either PrC-210 (0-70 mM, pH 6.5) or buffer were added to the incubation. The polypropylene microtubes were then sealed and irradiated for 2.5 min at a distance of 80 cm from a UV lamp. Samples were then applied to 1% agarose gels and electrophoresed using methods known in the art.

SMILES: CNCC(CS)CNC [PrC-210, 3-methylamino-2-methylaminomethyl-propane-1-thiol]
- Alopecia Score (% Normal Coat Density in Topical Treatment Area) ([1]; 2000 mM PrC-210 alone, ip Cytoxan 32 ug/gm b.w., Experiment 552-555): 9%
- effect in preventing Cytoxan-induced alopecia ([1]; neonate rats, three days topical resveratrol and/or topical PrC-210): weak effect
- effect upon killing of tumor cells by external beam γ irradiation [2]: no discernible effect
- protection of supercoiled DNA from OH radical damage [3]: completely prevented damage to supercoiled DNA
